# pEC50, pIC50: −log10 of the molar value.
# Assays:
# [1] = system: Mycobacterium tuberculosis; assay: Antitubercular activity against Mycobacterium tuberculosis H37Rv assessed as inhibition of bacterial growth by alamar blue assay; type: functional
# [2] = system: Mycobacterium tuberculosis; assay: Potentiation of ethionamide induced antibacterial activity against Mycobacterium tuberculosis H37Rv expressing GFP incubated for 5 days by fluorescence based analysis; type: functional, organism-based; conditions: 120 h
# [3] = system: Mycobacterium tuberculosis; assay: Antimycobacterial activity against Mycobacterium tuberculosis H37Rv infected in human THP-1 cells assessed as inhibition of bacterial growth; type: functional, organism-based
# [4] = system: Mycobacterium tuberculosis; assay: Antimycobacterial activity against Mycobacterium tuberculosis H37Rv assessed as inhibition of bacterial growth incubated for 5 days by alamar blue assay; type: functional; conditions: 120 h, time 5 day
SMILES,MIC [1],pEC50 [2],pIC50 [3],MIC [4]
O=C(NNC(=O)c1ccc([N+](=O)[O-])cc1)c1ccncc1,25 µg/mL,,,
Cc1ccccc1C(=O)NNC(=O)c1ccncc1,25 µg/mL,,,
O=C(NNS(=O)(=O)c1ccccc1)c1ccncc1,50 µg/mL,,,
Cc1ccc(S(=O)(=O)NNC(=O)c2ccncc2)cc1,25 µg/mL,,,
O=C(Cc1ccccc1F)NNC(=O)c1ccncc1,6.25 µg/mL,,,
O=C(NNC(=O)c1ccc(Cl)c(Cl)c1)c1ccncc1,12.5 µg/mL,,,
O=C(NNC(=O)c1ccc(Cl)cc1)c1ccncc1,25 µg/mL,,,
O=C(NNC(=O)c1ccncc1)c1ccncc1,12.5 µg/mL,,,
CCCCCCCCCCCCCCCCCC(=O)NNC(=O)c1ccncc1,50 µg/mL,,,
COc1ccc(/C=C/C(=O)NNC(=O)c2ccncc2)cc1,12.5 µg/mL,,,
O=C(/C=C/c1ccccc1)NNC(=O)c1ccncc1,50 µg/mL,,,
O=C(CCC(F)(F)F)N1CCC(F)(c2ccnc(Cl)c2)CC1,,> 6.82,8.00,
COc1ccc(NC(=O)c2c(Nc3cccc(C)c3C)nn3c(O)cc(C)nc23)cc1,,,,50 µg/mL
CCOc1ccc(NC(=O)c2c(Nc3ccccc3)nn3c(O)cc(C)nc23)cc1,,,,50 µg/mL
Cc1cc(O)n2nc(Nc3ccc(F)cc3)c(C(=O)Nc3cccc(Cl)c3)c2n1,,,,12.5 µg/mL
Cc1ccc(NC(=O)c2c(Nc3ccccc3)nn3c(O)cc(C)nc23)cc1,,,,50 µg/mL
Cc1cc(O)n2nc(Nc3cccc(C)c3C)c(C(=O)Nc3cccc(Cl)c3)c2n1,,,,50 µg/mL
Cc1ccc(Nc2nn3c(O)cc(C)nc3c2C(=O)Nc2ccc(F)cc2)c(C)c1,,,,50 µg/mL
O=C(CCC(F)(F)F)N1CC(C2CCCCC2)C1,,> 8.00,8.00,
O=C(CCC(F)(F)F)N1CCC(F)(c2ccnc(F)c2)CC1,,> 6.82,8.00,
CCN1CCN(c2nn3c(O)cc(C)nc3c2C(=O)Nc2cccc(Cl)c2Cl)CC1,,,,50 µg/mL
O=C(CCC(F)(F)F)N1CCC(F)(c2cncc(Cl)c2)CC1,,> 6.82,8.00,

SMILES,MIC [1],pEC50 [2],pIC50 [3],MIC [4]
C=CC(=O)NNC(=O)c1ccncc1,50 µg/mL,,,
O=C(CCC(F)(F)F)N1CCC2(CC1)CC(Br)=NO2,,> 7.42,7.30,
O=C(CCC(F)(F)F)N1CC(c2cccc(Cl)c2)C1,,> 8.00,8.00,
O=C(CCC(F)(F)F)N1CCC(F)(c2cncc(C(F)(F)F)c2)CC1,,> 6.82,8.00,
Cc1cccc(C(=O)NNC(=O)c2ccncc2)c1,12.5 µg/mL,,,
O=C(NNC(=O)c1ccco1)c1ccncc1,12.5 µg/mL,,,
O=C(/C=C/c1ccc(Cl)cc1)NNC(=O)c1ccncc1,12.5 µg/mL,,,
O=C(CCC(F)(F)F)N1CCC(F)(c2cc(C(F)(F)F)ccn2)CC1,,> 6.82,8.00,
COC1=NOC2(CCN(C(=O)CCCl)CC2)C1,,> 7.42,7.30,
COc1ccc(C(=O)NNC(=O)c2ccncc2)cc1OC,50 µg/mL,,,
O=C(CCCl)N1CCC2(CC1)CC(C(F)(F)F)=NO2,,> 7.42,7.30,
CCC1=NOC2(CCN(C(=O)CCC(F)(F)F)CC2)C1,,> 7.42,7.30,
O=C(CCC(F)(F)F)N1CCC(c2ccnc(Cl)c2)CC1,,> 6.82,8.00,
CCOC1=NOC2(CCN(C(=O)CCC(F)(F)F)CC2)C1,,> 7.42,7.30,
O=C(CCC(F)(F)F)N1CCC(c2cnc(F)c(F)c2)CC1,,> 6.82,8.00,
CCCCCCOC1=NOC2(CCN(C(=O)CCC(F)(F)F)CC2)C1,,> 7.42,7.30,
O=C(CCC(F)(F)F)N1CCC(c2ncc(F)cc2F)CC1,,> 6.82,8.00,
COc1ccc(Nc2nn3c(O)cc(C)nc3c2C(=O)Nc2ccc(F)c(Cl)c2)cc1,,,,25 µg/mL
O=C(Cc1cccc(Br)c1)NNC(=O)c1ccncc1,25 µg/mL,,,
O=C(CCCC(F)(F)F)N1CCC(c2cncc(Cl)c2)CC1,,> 6.82,8.00,
O=C(CCC(F)(F)F)N1CCC(c2cncc(Cl)c2)C1 (stereo not given),,> 6.82,8.00,
O=C(CCC(F)(F)F)N1CCC(F)(c2cccnc2)CC1,,> 6.82,8.00,

SMILES,MIC [1],pEC50 [2],pIC50 [3],MIC [4]
Cc1cc(O)n2nc(N3CCCC3)c(C(=O)Nc3ccc(Cl)c(Cl)c3)c2n1,,,,25 µg/mL
O=C(CCC(F)(F)F)N1CCC(F)(c2ccnc(C(F)(F)F)c2)CC1,,> 6.82,8.00,
Cc1ccc(Nc2nn3c(O)cc(C)nc3c2C(=O)Nc2ccccc2)cc1,,,,100 µg/mL
Cc1cc(O)n2nc(Nc3ccc(Cl)c(Cl)c3)c(C(=O)Nc3cccc(C)c3C)c2n1,,,,50 µg/mL
O=C(CCC(F)(F)F)N1CCC2(CC1)CC(F)=NO2,,> 7.42,7.30,
O=C(CCC(F)(F)F)N1CCC(c2cccc(C(F)(F)F)n2)CC1,,> 6.82,8.00,
O=C(CCC(F)(F)F)N1CCC(c2cncc(C(F)(F)F)n2)CC1,,> 6.82,8.00,
O=C(CCC(F)(F)F)N1CCC(c2cncc(F)c2)CC1,,> 6.82,8.00,
O=C(CCC(F)(F)F)N1CCC(c2cncc(C(F)(F)F)c2)CC1,,> 6.82,8.00,
O=C(CCC(F)(F)F)N1CCC(F)(c2ccc(F)nc2)CC1,,> 6.82,8.00,
O=C(CCC(F)(F)F)N1CCC(c2ccncc2F)CC1,,> 6.82,8.00,
O=C(CCC(F)(F)F)N1CCC(c2ccc(F)nc2F)CC1,,> 6.82,8.00,
O=C(/C=C/c1ccco1)NNC(=O)c1ccncc1,12.5 µg/mL,,,
COc1ccc(NC(=O)c2c(Nc3ccccc3)nn3c(O)cc(C)nc23)cc1,,,,50 µg/mL
O=C(CCC(F)(F)F)N1CCC(c2ccc(F)cn2)CC1,,> 6.82,8.00,
Cc1ccc(Nc2nn3c(O)cc(C)nc3c2C(=O)Nc2ccc(F)c(Cl)c2)cc1,,,,12.5 µg/mL
O=C(Cc1ccccc1Br)NNC(=O)c1ccncc1,25 µg/mL,,,
COc1ccc(C2CCN(C(=O)CCC(F)(F)F)CC2)cn1,,> 6.82,8.00,
Cc1ccc(Nc2nn3c(O)cc(C)nc3c2C(=O)Nc2ccc(Cl)cc2)c(C)c1,,,,50 µg/mL
O=C(CCC(F)(F)F)N1CCC(c2cc(C(F)(F)F)ccn2)CC1,,> 6.82,8.00,
O=C(CCC(F)(F)F)N1CCC(c2ccnc(C(F)(F)F)c2)CC1,,> 6.82,8.00,
O=C(CCC(F)(F)F)N1CCC(c2cccc(Cl)n2)CC1,,> 6.82,8.00,

SMILES,MIC [1],pEC50 [2],pIC50 [3],MIC [4]
O=C(CCC(F)(F)F)N1CC(c2ccc(F)cc2F)C1,,> 8.00,8.00,
Cc1cc(O)n2nc(Nc3ccc(Cl)cc3)c(C(=O)Nc3ccccc3)c2n1,,,,50 µg/mL
COc1ccc(Nc2nn3c(O)cc(C)nc3c2C(=O)Nc2ccc(C)cc2C)cc1,,,,50 µg/mL
CC1=NOC2(CCN(C(=O)CCC(F)(F)F)CC2)C1,,> 7.42,7.30,
COc1ccc(NC(=O)c2c(NN3CCOCC3)nn3c(O)cc(C)nc23)cc1,,,,25 µg/mL
COc1ccc(NC(=O)c2c(Nc3ccc(OC)cc3)nn3c(O)cc(C)nc23)cc1,,,,12.5 µg/mL
O=C(CCC(F)(F)F)N1CCC(c2ccnc(F)c2)CC1,,> 6.82,8.00,
O=C(CCC(F)(F)F)N1CC(c2cc(F)c(F)c(F)c2)C1,,> 8.00,8.00,
COc1ccc(NC(=O)c2c(Nc3cccc(Cl)c3)nn3c(O)cc(C)nc23)cc1,,,,12.5 µg/mL
CCOc1ccc(NC(=O)c2c(Nc3ccc(C)cc3C)nn3c(O)cc(C)nc23)cc1,,,,50 µg/mL
O=C(CCC(F)(F)F)N1CCC(c2cncc(Cl)n2)CC1,,> 6.82,8.00,
Cc1cc(O)n2nc(Nc3ccccc3)c(C(=O)Nc3ccccc3)c2n1,,,,50 µg/mL
O=C(Cc1ccccc1Cl)NNC(=O)c1ccncc1,25 µg/mL,,,
Cc1cc(O)n2nc(Nc3ccc(Cl)cc3)c(C(N)=O)c2n1,,,,50 µg/mL
O=C(CCC(F)(F)F)N1CCC(F)(c2ccccn2)CC1,,> 6.82,8.00,
Cc1cc(C2CCN(C(=O)CCC(F)(F)F)CC2)ccn1,,> 6.82,8.00,
O=C(CCC(F)(F)F)N1CCC(c2ccc(F)nc2)CC1,,> 6.82,8.00,
O=C(CCC(F)(F)F)N1CCC(c2cccc(F)n2)CC1,,> 6.82,8.00,
N#CC1=NOC2(CCN(C(=O)CCC(F)(F)F)CC2)C1,,> 7.42,7.30,
O=C(CCC(F)(F)F)N1CCC(c2cncc(Cl)c2)CC1,,> 6.82,8.00,
